The target in the test is Sodium channel protein type 10 subunit alpha (Homo sapiens, UniProt Q9Y5Y9). Nature of the test: Not found.
Excerpt: Not found

SMILES strings stand for the structures. pIC50: −log10 of the molar value.

Sodium channel protein type 10 subunit alpha, sequence (Q9Y5Y9 whole entry): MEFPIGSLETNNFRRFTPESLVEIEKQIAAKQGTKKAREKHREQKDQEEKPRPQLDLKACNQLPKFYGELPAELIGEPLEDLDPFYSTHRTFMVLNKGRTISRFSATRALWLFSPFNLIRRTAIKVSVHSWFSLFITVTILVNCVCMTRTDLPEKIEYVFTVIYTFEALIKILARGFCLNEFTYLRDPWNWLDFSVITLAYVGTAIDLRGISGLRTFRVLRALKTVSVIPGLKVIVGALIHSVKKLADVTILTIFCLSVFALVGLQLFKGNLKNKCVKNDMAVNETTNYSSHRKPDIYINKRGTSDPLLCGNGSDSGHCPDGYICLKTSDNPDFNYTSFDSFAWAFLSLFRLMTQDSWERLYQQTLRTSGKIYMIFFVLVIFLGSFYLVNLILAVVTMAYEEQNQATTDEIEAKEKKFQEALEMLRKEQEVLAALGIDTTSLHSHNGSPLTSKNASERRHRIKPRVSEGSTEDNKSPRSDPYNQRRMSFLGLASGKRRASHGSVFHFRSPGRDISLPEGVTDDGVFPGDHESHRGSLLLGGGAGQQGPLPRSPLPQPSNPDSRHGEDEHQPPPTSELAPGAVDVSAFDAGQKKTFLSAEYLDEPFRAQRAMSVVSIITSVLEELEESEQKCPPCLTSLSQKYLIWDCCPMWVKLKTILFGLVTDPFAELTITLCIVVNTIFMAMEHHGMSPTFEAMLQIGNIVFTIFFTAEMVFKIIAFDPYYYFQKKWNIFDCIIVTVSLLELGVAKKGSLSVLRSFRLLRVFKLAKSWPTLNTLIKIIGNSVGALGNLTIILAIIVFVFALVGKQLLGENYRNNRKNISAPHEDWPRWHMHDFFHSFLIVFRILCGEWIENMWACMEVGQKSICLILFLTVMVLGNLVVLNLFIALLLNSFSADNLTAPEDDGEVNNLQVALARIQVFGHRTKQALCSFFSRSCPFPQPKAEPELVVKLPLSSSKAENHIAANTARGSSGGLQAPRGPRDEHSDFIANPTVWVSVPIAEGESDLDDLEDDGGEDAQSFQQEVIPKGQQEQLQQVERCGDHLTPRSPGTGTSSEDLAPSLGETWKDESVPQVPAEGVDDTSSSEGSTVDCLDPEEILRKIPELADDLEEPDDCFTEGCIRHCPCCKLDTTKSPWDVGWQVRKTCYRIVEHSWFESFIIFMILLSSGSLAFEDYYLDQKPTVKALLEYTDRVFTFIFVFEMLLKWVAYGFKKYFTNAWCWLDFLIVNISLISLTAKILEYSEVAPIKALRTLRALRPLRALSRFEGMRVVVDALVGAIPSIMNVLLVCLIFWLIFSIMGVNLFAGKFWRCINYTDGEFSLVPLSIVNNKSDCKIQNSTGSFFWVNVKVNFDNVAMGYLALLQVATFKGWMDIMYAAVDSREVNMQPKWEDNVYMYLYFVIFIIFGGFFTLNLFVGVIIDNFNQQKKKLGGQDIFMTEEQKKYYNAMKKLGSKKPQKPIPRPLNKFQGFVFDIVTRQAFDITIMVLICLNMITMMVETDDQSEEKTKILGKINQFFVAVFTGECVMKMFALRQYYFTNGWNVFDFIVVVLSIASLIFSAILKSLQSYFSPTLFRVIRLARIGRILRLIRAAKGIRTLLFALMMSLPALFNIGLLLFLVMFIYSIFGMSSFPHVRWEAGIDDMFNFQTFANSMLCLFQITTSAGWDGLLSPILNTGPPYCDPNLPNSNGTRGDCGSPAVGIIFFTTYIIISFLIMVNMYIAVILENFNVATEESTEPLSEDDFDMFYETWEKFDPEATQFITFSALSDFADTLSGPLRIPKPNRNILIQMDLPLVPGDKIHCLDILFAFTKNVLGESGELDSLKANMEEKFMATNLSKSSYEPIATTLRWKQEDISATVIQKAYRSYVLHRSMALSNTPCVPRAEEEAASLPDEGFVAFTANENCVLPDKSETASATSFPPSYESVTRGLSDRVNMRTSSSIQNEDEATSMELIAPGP

Take `Cc1nc(N2CCC(F)(F)C2)c(C(=O)Nc2cccc(S(N)(=O)=O)c2)c(C)c1Cl` [US12344595, Example 5]: the pIC50 (commonly the negative decadic logarithm of the IC50, by convention in mol/L) was 7.31.

The record behind these values is BindingDB's records for patent US12344595 (Merck Sharp & Dohme, 2025).
